Values joined by “and” are separate entries in the source; they are usually repeats but may differ in a detail not shown here. Equal values may be shown once.
Columns and labels:
[1] = target: T1, tPA (Homo sapiens, UniProt P00750); assay: tPA-related mortality and intracranial hemorrhage after transient mechanical obstruction of the MCA in rats; format: in vivo
T1 construct: purchased Genentech, Inc., South San Francisco, Calif
Protocol: MCA occlusion. All studies were conducted in accordance with the NIH Guide for the Care and Use of Laboratory Animals. Sprague-Dawley rats (mean weight 250 g) were fed on regular chow and allowed free access to drinking water. Rats were anesthetized with an i.p. injection of ketamine (75 mg per ml, Apharmo) and xylazine (5 mg per ml, Bayer). Body temperature was maintained at 37±0.5° C. by means of a heating lamp. Focal cerebral ischemia was induced by occluding the left MCA with an intraluminal filament (Ding-Zhou, L. et al. 2002 Eur J. Pharmacol. 457, 137-146). Briefly, the left common and external carotid arteries were isolated through a midline neck incision and ligated with a 4-0 silk suture (Ethicon). An arteriotomy was fashioned in the common carotid artery just proximal to the carotid bifurcation. A 4-0 nylon monofilament (Ethicon) was introduced through this incision into the internal carotid artery and advanced distal to the carotid bifurcation to occlude the origin of the MCA; the thread was carefully withdrawn 2 hours later. tPA alone at the indicated concentrations, tPA together with the PAI-1 derived peptides 206 (EEIIMD of SEQ ID NO: 11) or peptide 218 N (Ac-RMAPEEIIMDRPFLFVVR-amide of SEQ ID NO: 1) or peptide 218 O (Ac-RMAPEEIIMDRPFLYVVR-amide of SEQ ID NO: 2) were injected i.v. 2 hours after the thread had been withdrawn. Rats were returned to their cages after recovering from anesthesia. Twenty-four hours later. rats were euthanized with an overdose of Nembutal and the infarct size was measured.

[2] = target: T2, tPA (Rattus norvegicus, UniProt P19637); assay: Infarct volume after embolic stroke in rats; format: in vivo; details: peptide 1 mg per kg in saline, absence of tPA
T2 construct: purchased Genentech, Inc., South San Francisco, Calif
Protocol: (§1) Embolic stroke Embolic stroke was induced according to the previously reported microembolism model (Bdeir, K. et al. 2000 Blood 96, 1820-1826) as adapted to stroke (Atochin, D. N. et al. 2004. Stroke 35, 2177-2182). Microemboli were prepared, dissected, and homogenized as described (Bdeir K et al. 2000, supra). The suspension of microemboli used to induce stroke contained 1.4×10^6 microparticles, with an average diameter of 3 μm.
(§2) Experiments were performed in rats as described previously (Ding-Zhou, L. et al. 2002, supra) with some modifications. Briefly, Sprague-Dawley rats (mean weight 250 g) were anesthetized by i.p. injection of ketamine (75 mg per mL) and xylazine (5 mg per mL). The carotid artery was exposed and an arteriotomy was performed. A polyethylene catheter with an inner diameter of […] was used to inject the solution of microemboli (1.4×10^6 particles) directly into the exposed internal carotid artery. The catheter was flushed with 0.25 ml normal saline and carefully withdrawn. After washing the surgical site with saline containing 1 mM hexacapron, the incision was closed.
(§3) After induction of embolic stroke, rats were divided into 4 treatment groups (n=7 each): tPA (6 mg per kg) or tPA (6 mg per kg) with either peptide 206, peptide 218 O, or peptide 218 N (1 mg per kg) in normal saline were injected i.v., 2 hours after the catheter was withdrawn. Control groups received a vehicle consisting of normal saline alone or peptides 206 or 218 (1 mg per kg) in saline. 50% of the dose was given as a bolus injection and the remainder was infused over 60 min. The rats were returned to their cages after recovering from anesthesia. Twenty-four hours after the procedure, the rats were euthanized with an overdose of Nembutal and the infarct size was measured.
(§4) Measuring infarct volume The brain was removed and sectioned coronally into 2-mm segments. Brain slices were immersed in 2% 2,3,5-triphenyltetrazolium chloride (TTC) in saline, incubated for 30 minutes at 37° C. and placed in 4% formalin/PBS overnight. The area of infarction remains unstained, appearing white, making it clearly distinguishable from stained viable tissue. The sections were photographed and the infarct area measured using the NIH computer image analysis program. Infarct volume was defined as the sum of the unstained areas of all sections, multiplied by their thickness and expressed in cubic millimeters. Data are represented as mean±SE. Differences were analyzed by ANOVA followed by the t-test and the level of significance was corrected using a post-hoc analysis with the Bonferroni test. Statistical significance was set at P<0.05.
(§5) The effect of PAI-1 derived peptides on tPA treated rats after embolic stroke induced by injection of microthrombi directly into the MCA was also examined. […]

[3] = tested on: tPA; assay: Infarct volume after embolic stroke in rats; format: in vivo
Protocol: as §1, §2, §3, §4, §5

[4] = target: T1, tPA; format: in vivo; details: rats
Protocol: MCA occlusion. All studies were conducted in accordance with the NIH Guide for the Care and Use of Laboratory Animals. Sprague-Dawley rats (mean weight 250 g) were fed on regular chow and allowed free access to drinking water. Rats were anesthetized with an i.p. injection of ketamine (75 mg per ml, Apharmo) and xylazine (5 mg per ml, Bayer). Body temperature was maintained at 37±0.5° C. by means of a heating lamp. Focal cerebral ischemia was induced by occluding the left MCA with an intraluminal filament (Ding-Zhou, L. et al. 2002 Eur J. Pharmacol. 457, 137-146). Briefly, the left common and external carotid arteries were isolated through a midline neck incision and ligated with a 4-0 silk suture (Ethicon). An arteriotomy was fashioned in the common carotid artery just proximal to the carotid bifurcation. […] Twenty-four hours later. rats were euthanized with an overdose of Nembutal and the infarct size was measured.
Measuring infarct volume The brain was removed and sectioned coronally into 2-mm segments. […] The sections were photographed and the infarct area measured using the NIH computer image analysis program. […] Differences were analyzed by ANOVA followed by the t-test and the level of significance was corrected using a post-hoc analysis with the Bonferroni test. […]
The effect of the PAI-1 derived peptides on infarct size after transient mechanical obstruction of the MCA in rats treated with tPA was examined. tPA injected intravenously two hours after establishing reperfusion increased the infarct size from 16±4.6 to 48.333±8.7 mm3 (FIG. 2). […] The infarct size measured in the presence of peptide 206 was 20.333±4.8 while in the presence of peptide 218 N its size was only 13.3±3.6 mm3 (P<0.05; FIG. 2).
The effect of the PAI-1 derived peptides on infarct size was determined in rats that underwent MCA and reperfusion and four hours later treated with tPA alone or together with PAI-1 derived peptides. tPA injected intravenously four hours after establishing reperfusion increased the infarct size from 68±7 to 77±9 mm3 (FIG. 7).

[5] = target: T3, tPA (Sus scrofa, UniProt Q8SQ23); assay: Brain water content after fluid percussion brain injury (FPI) in piglets; format: in vivo, pigs; details: peptide 1 mg/kg i.v. 30 min prior to FPI, no exogenous tPA, normal 78.87±0.75%, vehicle after injury 84.1±0.45%
T3 construct: purchased Genentech, Inc., South San Francisco, Calif
Protocol: (§6) Fluid Percussion Brain Injury (FPI) method. The method was performed as described by Armstead et al., Nat. Neurosci.
(§7) Brain water content Brain water content (BWC) was determined by measuring the wet and dry weights of the brain tissue and by using the formula BWC=wet weight-dry weight/wet weight×100. Data were analyzed by analysis of variants with a Student-Newman-Keuls post-hoc test. A P<0.05 was considered significant.
(§8) Brain water content (BWC) was determined by measuring the wet and dry weights of the brain tissue and by using the formula BWC=wet weight-dry weight/wet weight×100. Data were analyzed by analysis of variants with a Fischer's post-hoc test. A P<0.05 was considered significant.

[6] = tested on: tPA; assay: as above; format: in vivo, pigs; details: for Brain water content after FPI in the presence of tPA: tPA 2 mg/kg i.v. with peptide 1 mg/kg i.v.
Protocol: as §6, §7, §8

[7] = target: T1, tPA; assay: tPA-induced opening of the BBB in mice (Evans blue); format: in vivo; details: C57/B16 mice, 10 mg/kg tPA with 10 μM peptide i.v.
Excerpt: The brain content of Evans blue was quantified by absorbance at 620 nm.

T1 sequence (P00750 36-562): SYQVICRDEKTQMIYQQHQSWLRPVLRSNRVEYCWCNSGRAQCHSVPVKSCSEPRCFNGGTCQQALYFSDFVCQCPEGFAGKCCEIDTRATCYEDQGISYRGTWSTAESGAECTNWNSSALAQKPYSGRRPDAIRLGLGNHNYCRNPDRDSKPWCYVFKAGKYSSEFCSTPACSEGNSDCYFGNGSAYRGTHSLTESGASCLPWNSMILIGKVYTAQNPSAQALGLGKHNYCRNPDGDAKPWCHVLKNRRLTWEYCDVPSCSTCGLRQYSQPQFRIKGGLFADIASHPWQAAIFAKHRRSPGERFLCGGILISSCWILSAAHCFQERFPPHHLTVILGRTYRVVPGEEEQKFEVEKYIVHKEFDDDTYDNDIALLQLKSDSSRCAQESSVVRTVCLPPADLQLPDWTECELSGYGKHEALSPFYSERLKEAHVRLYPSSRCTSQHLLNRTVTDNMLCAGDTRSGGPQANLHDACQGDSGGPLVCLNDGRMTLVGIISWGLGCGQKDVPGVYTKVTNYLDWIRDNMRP
T3 sequence (Q8SQ23 36-562): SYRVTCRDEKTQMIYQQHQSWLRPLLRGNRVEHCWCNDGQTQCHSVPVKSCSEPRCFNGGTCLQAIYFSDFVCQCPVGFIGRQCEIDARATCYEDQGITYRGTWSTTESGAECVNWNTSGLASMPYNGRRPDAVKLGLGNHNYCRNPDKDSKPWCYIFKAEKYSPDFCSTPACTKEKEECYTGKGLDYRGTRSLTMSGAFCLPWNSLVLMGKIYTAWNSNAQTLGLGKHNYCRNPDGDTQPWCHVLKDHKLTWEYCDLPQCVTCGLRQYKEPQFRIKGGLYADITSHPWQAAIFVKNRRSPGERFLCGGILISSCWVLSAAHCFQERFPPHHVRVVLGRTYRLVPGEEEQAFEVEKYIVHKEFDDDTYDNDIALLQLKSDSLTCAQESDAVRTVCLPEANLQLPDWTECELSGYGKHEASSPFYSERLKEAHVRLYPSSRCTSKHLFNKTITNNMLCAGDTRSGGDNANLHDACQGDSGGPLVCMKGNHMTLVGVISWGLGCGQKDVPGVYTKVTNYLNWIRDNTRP
T2 sequence (P19637 33-559): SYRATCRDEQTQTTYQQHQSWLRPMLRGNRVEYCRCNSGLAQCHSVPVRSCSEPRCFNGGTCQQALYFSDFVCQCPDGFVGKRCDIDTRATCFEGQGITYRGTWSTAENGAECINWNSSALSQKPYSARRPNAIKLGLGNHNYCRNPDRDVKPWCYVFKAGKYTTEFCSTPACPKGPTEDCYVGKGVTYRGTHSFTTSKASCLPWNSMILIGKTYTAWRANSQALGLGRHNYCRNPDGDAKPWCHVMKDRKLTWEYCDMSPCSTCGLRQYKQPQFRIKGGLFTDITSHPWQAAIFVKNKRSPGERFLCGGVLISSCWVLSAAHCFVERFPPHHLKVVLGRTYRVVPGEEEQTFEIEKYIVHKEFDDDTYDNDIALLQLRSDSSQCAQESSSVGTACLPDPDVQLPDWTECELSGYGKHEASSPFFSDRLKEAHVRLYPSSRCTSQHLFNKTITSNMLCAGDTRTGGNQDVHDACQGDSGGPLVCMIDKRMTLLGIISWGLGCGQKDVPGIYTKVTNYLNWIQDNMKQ

Molecule: CC[C@H](C)[C@H](NC(=O)[C@H](CCC(=O)O)NC(=O)[C@H](CCC(=O)O)NC(=O)[C@@H]1CCCN1C(=O)[C@H](C)NC(=O)[C@H](CCSC)NC(=O)[C@H](CCCNC(=N)N)NC(C)=O)C(=O)N[C@H](C(=O)N[C@@H](CCSC)C(=O)N[C@@H](CC(=O)O)C(=O)N[C@@H](CCCNC(=N)N)C(=O)N1CCC[C@H]1C(=O)N[C@@H](Cc1ccccc1)C(=O)N[C@@H](CC(C)C)C(=O)N[C@@H](Cc1ccccc1)C(=O)N[C@H](C(=O)N[C@H](C(=O)N[C@@H](CCCNC(=N)N)C(N)=O)C(C)C)C(C)C)[C@@H](C)CC [peptide 218 N, Ac-RMAPEEIIMDRPFLFVVR-amide]
- Absolute mortality, tPA co-injected with peptide (FIG. 6A) ([1]; mechanical MCA obstruction, tPA alone 28.6%): 15.4%
- Reduction of the tPA associated increase in mortality (FIG. 6B) ([1]; mechanical MCA obstruction, tPA with peptide): 63%
- tPA-induced mortality with peptide, in per cent from Table 1 ([1]; tPA plus peptide, tPA alone ~29%): 9%
- Post-stroke infarct size, peptide alone [2]: significantly reduced post-stroke infarct size
- Infarct volume, tPA with peptide ([3]; tPA 6 mg per kg with peptide 1 mg per kg i.v. two hours after embolization): smaller infarct volumes than those treated with tPA and peptide 206 or tPA and peptide 218 O
- Infarct size, tPA with peptide four hours after reperfusion (FIG. 7) ([4]; MCA and reperfusion, tPA co-injected with peptide four hours later): significantly stronger than that of 218 O and 206
- Brain water content after FPI [5]: 79.343±0.25%
- Brain water content after FPI in the presence of tPA [6]: 79.643±0.51%
- Prevention of tPA-induced loss of BBB integrity [7]: about 90%

Molecule: EEIIMD [peptide 206, 6-mer peptide corresponding to amino acid residues 373-378 of human PAI-1]
- Post-stroke infarct size, peptide alone [2]: little effect on infarct size
- Brain water content after FPI [5]: 81.379±0.3%
- Brain water content after FPI in the presence of tPA [6]: 82.351±0.55%
- Prevention of tPA-induced loss of BBB integrity [7]: no effect

Molecule: tPA: Recombinant tPA purchased from Genentech; thrombolytic agent, tissue-type plasminogen activator
- Mortality, tPA alone, in per cent from Table 1 ([1]; 6 out of 21): ~29%
- Mortality (dead rats/rats in group) ([1]; Table 1, control 1/12): 6 out of 21 and 6/21
- Mortality rate, tPA alone (FIG. 6) ([1]; mechanical MCA obstruction, tPA i.v. two hours after reperfusion, saline control 7.7%): 28.6%
- Decrease of infarct volume by tPA alone ([3]; tPA 6 mg per kg i.v. two hours after embolization): approximately 48%
- Infarct size, tPA alone four hours after reperfusion ([4]; MCA and reperfusion, tPA i.v. four hours later, control 68±7): 77±9 mm3
- Infarct size, tPA alone ([4]; mechanical MCA obstruction, tPA i.v. two hours after reperfusion, saline control 16±4.6): 48.333±8.7 mm3
- Brain water content after FPI, tPA alone ([6]; tPA 2 mg/kg i.v. without peptide): 87.12±0.6%
